Source: BindingDB's records for doi:10.7270/Q2C53J9J (University of Pittsburgh, 2010)

The compounds below were run against T1, Glucose-6-phosphate 1-dehydrogenase (Leuconostoc mesenteroides, UniProt P11411) (assay: Leuconostoc G6PDH inhibition potency, SAR follow-up, counter-screen for TbHK1 inhibitor project, biochemical, analogue series, IC50 (AID 2579)).
T1 sequence (P11411 whole entry): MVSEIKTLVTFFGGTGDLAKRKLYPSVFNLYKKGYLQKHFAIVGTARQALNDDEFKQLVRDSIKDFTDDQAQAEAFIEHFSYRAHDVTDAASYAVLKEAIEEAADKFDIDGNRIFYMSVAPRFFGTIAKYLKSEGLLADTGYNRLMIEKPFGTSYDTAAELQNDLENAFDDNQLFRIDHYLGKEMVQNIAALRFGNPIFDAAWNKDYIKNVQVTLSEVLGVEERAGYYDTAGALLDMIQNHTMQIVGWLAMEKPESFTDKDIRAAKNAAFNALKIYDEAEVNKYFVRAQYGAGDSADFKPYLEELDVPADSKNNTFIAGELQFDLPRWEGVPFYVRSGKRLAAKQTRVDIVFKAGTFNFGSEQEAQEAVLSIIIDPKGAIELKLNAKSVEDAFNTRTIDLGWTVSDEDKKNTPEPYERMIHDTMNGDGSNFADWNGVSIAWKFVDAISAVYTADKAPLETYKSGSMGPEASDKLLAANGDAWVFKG

Row | Compound | IC50 [µM]
1 | O=c1s[nH]c2ccccc12 [KUC103850N] | > 25
2 | Cc1ccc(C(=O)Nc2cc(Cl)ccc2C(=O)O)cc1 [4-chloro-2-[(4-methylbenzoyl)amino]benzoic acid] | > 25
3 | COc1ccc(C(=O)Nc2cc(Cl)ccc2C(=O)O)cc1 [4-chloranyl-2-[(4-methoxyphenyl)carbonylamino]benzoic acid] | > 25
4 | O=c1cc(-c2ccccc2)sn1-c1ccccc1 | > 25
5 | COc1ccc(C(=O)Nc2cc(C(=O)O)ccc2Cl)cc1 [4-chloro-3-[(4-methoxybenzoyl)amino]benzoic acid] | > 25
6 | O=c1c2cc(F)ccc2sn1-c1ccccc1Cl | > 25
7 | COc1ccc(NC(=O)Cn2sc3ccccc3c2=O)cc1 [KSC-4-269] | > 25
8 | COc1ccc(-c2cc3ccccc3[nH]2)cc1 [KUC105790N] | > 25
9 | O=C(O)c1ccc(Cl)cc1NC(=O)C1CCOCC1 [KUC106462N] | > 25
10 | N#Cc1ccc2c(=O)n(-c3ccccc3)sc2c1 [3-oxidanylidene-2-phenyl-1,2-benzothiazole-6-carbonitrile] | > 25
11 | CCOc1ccc(C(=O)Nc2cc(Cl)ccc2C(=O)O)cc1 [4-chloro-2-[[(4-ethoxyphenyl)-oxomethyl]amino]benzoic acid] | > 25
12 | Cc1ccccc1-n1sc2cc(F)ccc2c1=O [6-fluoranyl-2-(2-methylphenyl)-1,2-benzothiazol-3-one] | > 25
13 | O=C(Cn1sc2ccccc2c1=O)Nc1ccccc1 [KUC104122N] | > 25
14 | O=c1c2ccccc2sn1-c1ccccc1 [2-phenyl-1,2-benzothiazol-3-one] | > 25
15 | COc1cccc(NC(=O)Cn2sc3ccccc3c2=O)c1 [KUC104220N] | > 25
16 | O=c1c2ccccc2sn1-c1cccc(F)c1 [KUC103653N] | > 25
17 | O=C(c1ccccc1)n1sc2ccccc2c1=O [KUC105344N] | > 25
18 | COc1cccc(CC(=O)Nc2cc(Cl)ccc2C(=O)O)c1 [4-chloro-2-[[2-(3-methoxyphenyl)-1-oxoethyl]amino]benzoic acid] | > 25
19 | CC(C)c1ccc(C(=O)Nc2cc(Cl)ccc2C(=O)O)cc1 [4-chloro-2-[[oxo-(4-propan-2-ylphenyl)methyl]amino]benzoic acid] | > 25
20 | COc1cc(C(=O)Nc2cc(Cl)ccc2C(=O)O)cc(OC)c1OC | > 25
21 | O=C(CCn1sc2ccccc2c1=O)Nc1ccccc1 [3-(3-oxidanylidene-1,2-benzothiazol-2-yl)-N-phenyl-propanamide] | > 25

Row | Compound | IC50 [µM]
22 | CC(C)(C)c1ccc(C(=O)Nc2cc(Cl)ccc2C(=O)O)cc1 [KSC-18-037] | > 25
23 | COc1ccc(C(=O)Nc2ccc(Cl)cc2C(=O)O)cc1 [KUC105713N] | > 25
24 | O=C(Nc1cc(Cl)ccc1C(=O)O)c1cocn1 [KUC105934N] | > 25
25 | O=C(Nc1cc(Cl)ccc1C(=O)O)c1ccc2c(c1)CCC2 [KUC106492N] | > 25
26 | CN(C)c1ccc(C(=O)Nc2cc(Cl)ccc2C(=O)O)cc1 [KUC105997N] | > 25
27 | N#Cc1ccc(NC(=O)Cn2sc3ccccc3c2=O)cc1 [KUC104552N] | > 25
28 | Cc1ccc(NC(=O)Cn2sc3ccccc3c2=O)cc1 [KUC104219N] | > 25
29 | CCc1ccc(C(=O)Nc2cc(Cl)ccc2C(=O)O)cc1 [KSC-6-279] | > 25
30 | COc1ccc2sn(-c3ccccc3)c(=O)c2c1 [KSC-09-048] | > 25
31 | CN(Cc1ccccc1)C(=O)Cn1sc2ccccc2c1=O [N-benzyl-N-methyl-2-(3-oxo-1,2-benzothiazol-2-yl)acetamide] | > 25
32 | O=c1c2cc(Br)ccc2sn1-c1ccccc1 [KSC-6-175] | > 25
33 | COc1ccc(C(=O)Nc2cc(Cl)ccc2C#N)cc1 [KSC-6-267] | > 25
34 | CC(C)Cc1ccc(C(=O)Nc2cc(Cl)ccc2C(=O)O)cc1 [4-chloranyl-2-[[4-(2-methylpropyl)phenyl]carbonylamino]benzoic acid] | > 25
35 | O=C(Cn1sc2ccccc2c1=O)Nc1ccc(Br)cc1 [N-(4-bromophenyl)-2-(3-oxo-1,2-benzothiazol-2-yl)acetamide] | > 25
36 | N#Cc1ccc(Oc2ccc3c(c2)B(O)OC3)cc1 [KSC-6-289] | > 25
37 | COc1ccc(C(=O)Nc2cc(F)ccc2C(=O)O)cc1 [KSC-6-276] | > 25
38 | O=C(Nc1cc(Cl)ccc1C(=O)O)c1ccc(C2CC2)cc1 [KUC106496N] | > 25
39 | CN(C)c1ccc(NC(=O)Cn2sc3ccccc3c2=O)cc1 [KSC-09-127C] | > 25
40 | O=c1c2cc(N3CCOCC3)ccc2sn1-c1ccccc1 | > 25
41 | COc1ccc(C(=O)N(C)c2cc(Cl)ccc2C(=O)O)cc1 | > 25
42 | COc1ccccc1-n1sc2ccccc2c1=O [KUC103854N] | > 25

Row | Compound | IC50 [µM]
43 | COC(=O)c1ccc(Cl)cc1NS(=O)(=O)c1ccc(OC)cc1 | > 25
44 | COc1ccc(C(=O)NC(C(=O)O)c2ccccc2)cc1 (stereo not drawn) [2-[(4-methoxyphenyl)carbonylamino]-2-phenyl-ethanoic acid] | > 25
45 | COc1ccc(C(=O)Nc2cccc(Cl)c2)cc1 | > 25
46 | Cc1ccc(-n2sc3ccccc3c2=O)cc1 [2-(4-methylphenyl)-1,2-benzisothiazol-3(2H)-one] | > 25
47 | O=C(Nc1ccccc1)n1sc2ccccc2c1=O [KUC105339N] | > 25
48 | OB1OCc2cc(C(F)(F)F)ccc21 [KSC-6-287] | > 25
49 | O=C(O)c1ccc(Cl)cc1NC(=O)N1CCOCC1 [KUC105933N] | > 25
50 | O=C(Cn1sc2ccccc2c1=O)Nc1ccc(C(F)(F)F)cc1 [KUC105341N] | > 25
51 | O=c1c2cc(F)ccc2sn1-c1ccc(Cl)cc1 [2-(4-chlorophenyl)-5-fluoranyl-1,2-benzothiazol-3-one] | > 25
52 | Cc1ccccc1N1Cc2ccccc2C1=O [KUC103869N] | > 25
53 | CC(C)c1cccc(C(=O)Nc2cc(Cl)ccc2C(=O)O)c1 [KUC106459N] | > 25
54 | O=c1c(Br)csn1-c1ccc(Br)cc1 [4-bromo-2-(4-bromophenyl)-3-isothiazolone] | > 25
55 | O=C(Cn1sc2ccccc2c1=O)Nc1ccccc1I [N-(2-iodanylphenyl)-2-(3-oxidanylidene-1,2-benzothiazol-2-yl)ethanamide] | > 25
56 | O=C(Cn1sc2ccccc2c1=O)Nc1ccccc1Cl [N-(2-chlorophenyl)-2-(3-oxidanylidene-1,2-benzothiazol-2-yl)ethanamide] | > 25
57 | O=C(Nc1cc(Cl)ccc1C(=O)O)c1ccc(OC(F)(F)F)cc1 [KUC105992N] | > 25
58 | COc1ccc(C(=O)O)c(NC(=O)c2ccc(Cl)cc2)c1 | > 25
59 | COc1ccc(C(=O)NC(CC(=O)O)c2cccc(Cl)c2)cc1 (stereo not drawn) [3-(3-chlorophenyl)-3-[(4-methoxybenzoyl)amino]propanoic acid] | > 25
60 | O=C(Cn1sc2ccccc2c1=O)Nc1cccc(F)c1 [N-(3-fluorophenyl)-2-(3-oxo-1,2-benzothiazol-2-yl)acetamide] | > 25
61 | O=c1c2ccccc2sn1-c1ccccc1Cl | > 25
62 | O=C(Cn1sc2ccccc2c1=O)NC1CCCCC1 | > 25
63 | COc1ccc(C(=O)Nc2cc(Cl)ccc2C(=O)O)cc1OC [4-chloro-2-[(3,4-dimethoxybenzoyl)amino]benzoic acid] | > 25

Row | Compound | IC50 [µM]
64 | O=c1c2cc(F)ccc2sn1-c1ccccc1 [5-fluoranyl-2-phenyl-1,2-benzothiazol-3-one] | > 25
65 | O=c1ccsn1-c1ccccc1 [2-Phenyl-isothiazol-3-one] | > 25
66 | COc1ccc(C(=O)Nc2cc(OC)ccc2C(=O)O)cc1 [KUC105624N] | > 25
67 | Cc1cc(=O)n(-c2ccccc2)s1 | > 25
68 | O=C1c2cccc(Br)c2SCN1c1ccccc1 [8-bromanyl-3-phenyl-2H-1,3-benzothiazin-4-one] | > 25
69 | COc1ccc(C(=O)Nc2cc(-c3ccccc3)ccc2C(=O)O)cc1 | > 25
70 | COc1ccc(C(=O)Nc2cc(C(F)(F)F)ccc2C(=O)O)cc1 [2-[(4-methoxybenzoyl)amino]-4-(trifluoromethyl)benzoic acid] | > 25
71 | CC(=O)Nc1ccc2sn(-c3ccccc3)c(=O)c2c1 [KSC-6-110] | > 25
72 | O=C(Cn1sc2ccccc2c1=O)Nc1cccc(C(F)(F)F)c1 [KUC104221N] | > 25
73 | COc1ccc(NC(=O)Nc2ccccc2C(=O)O)cc1 [KUC105625N] | > 25
74 | CC(=O)Nc1cc(Cl)ccc1C(=O)O [KUC105931N] | > 25
75 | COC(=O)c1ccc(Cl)cc1NC(=O)c1ccccc1OC [4-chloro-2-[[(2-methoxyphenyl)-oxomethyl]amino]benzoic acid methyl ester] | > 25
76 | CCc1ccc(C(=O)Nc2cc(Cl)ccc2C(=O)OC)cc1 [4-chloro-2-[[(4-ethylphenyl)-oxomethyl]amino]benzoic acid methyl ester] | > 25
77 | COc1ccc(S(=O)(=O)Nc2cc(Cl)ccc2C(=O)O)cc1 | > 25
78 | COc1ccc(C(=O)Nc2cnccc2C(=O)O)cc1 [3-[(4-methoxybenzoyl)amino]pyridine-4-carboxylic acid] | > 25
79 | O=c1c2cc(C(F)(F)F)ccc2sn1-c1ccccc1 [KSC-09-037] | > 25
80 | O=C(Nc1cc(Cl)ccc1C(=O)O)c1ccccc1 [2-benzamido-4-chlorobenzoic acid] | > 25
81 | COC(=O)c1ccc(Cl)cc1NC(=O)c1ccc(Cl)cc1 | > 25
82 | COc1ccc(C(=O)Nc2ccccc2C(=O)O)cc1Cl | > 25
83 | O=C(Nc1cc(Cl)ccc1C(=O)O)c1ccc(-c2ccccc2)cc1 [4-chloranyl-2-[(4-phenylphenyl)carbonylamino]benzoic acid] | > 25
